Measurements: ChEMBL document CHEMBL1126045, “Alanine series of ovine corticotropin releasing factor (oCRF): a structure-activity relationship study” (J Med Chem, 1992)

target: Corticotropin releasing factor receptor (Rattus norvegicus) (UniProt P47866+P35353); assay: In vitro ability (peptide) to stimulate ACTH release by rat anterior pituitary cells relative to Ovine corticotropin releasing factor (oCRF).; type: cell-based; set-up: unit not given here; conditions: Pituitary gland cell
Sequence (P35353 whole entry, looked up): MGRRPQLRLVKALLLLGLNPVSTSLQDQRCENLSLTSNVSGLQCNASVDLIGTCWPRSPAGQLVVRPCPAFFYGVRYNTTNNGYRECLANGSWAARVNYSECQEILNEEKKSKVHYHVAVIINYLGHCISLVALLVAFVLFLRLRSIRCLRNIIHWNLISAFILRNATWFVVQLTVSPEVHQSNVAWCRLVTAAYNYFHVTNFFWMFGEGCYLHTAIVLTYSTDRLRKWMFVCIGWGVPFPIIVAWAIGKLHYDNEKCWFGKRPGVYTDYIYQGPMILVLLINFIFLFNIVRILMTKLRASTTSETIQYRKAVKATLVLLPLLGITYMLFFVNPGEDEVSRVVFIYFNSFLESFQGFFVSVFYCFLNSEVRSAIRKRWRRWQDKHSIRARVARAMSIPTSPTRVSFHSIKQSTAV
Sequence (P47866 whole entry, looked up): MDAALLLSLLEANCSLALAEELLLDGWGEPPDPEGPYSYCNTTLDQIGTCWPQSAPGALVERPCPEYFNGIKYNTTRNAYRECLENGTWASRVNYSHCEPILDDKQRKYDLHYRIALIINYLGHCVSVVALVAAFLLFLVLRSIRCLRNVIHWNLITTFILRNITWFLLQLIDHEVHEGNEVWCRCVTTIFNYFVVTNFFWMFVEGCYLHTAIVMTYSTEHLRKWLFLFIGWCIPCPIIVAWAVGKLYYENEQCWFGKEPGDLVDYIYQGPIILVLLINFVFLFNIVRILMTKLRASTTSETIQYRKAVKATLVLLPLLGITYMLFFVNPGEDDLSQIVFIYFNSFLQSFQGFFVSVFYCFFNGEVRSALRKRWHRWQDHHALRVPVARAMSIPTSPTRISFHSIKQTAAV

Relative potency	Compound
0.6	CC[C@H](C)[C@H](NC(=O)[C@H](C)NC(=O)[C@@H]1CCCN1C(=O)[C@H](CCC(=O)O)NC(=O)[C@H](CCC(N)=O)NC(=O)[C@@H](N)CO)C(=O)N[C@@H](CO)C(=O)N[C@@H](CC(C)C)C(=O)N[C@@H](CC(=O)O)C(=O)N[C@@H](CC(C)C)C(=O)N[C@H](C(=O)N[C@@H](Cc1ccccc1)C(=O)N[C@@H](Cc1c[nH]cn1)C(=O)N[C@@H](CC(C)C)C(=O)N[C@@H](CC(C)C)C(=O)N[C@@H](CCCN=C(N)N)C(=O)N[C@@H](CCC(=O)O)C(=O)N[C@H](C(=O)N[C@@H](CC(C)C)C(=O)N[C@@H](CCC(=O)O)C(=O)N[C@@H](CCSC)C(=O)N[C@H](C(=O)N[C@@H](CCCCN)C(=O)N[C@@H](C)C(=O)N[C@@H](CC(=O)O)C(=O)N[C@@H](CCC(N)=O)C(=O)N[C@@H](CC(C)C)C(=O)N[C@@H](C)C(=O)N[C@@H](CCC(N)=O)C(=O)N[C@@H](CCC(N)=O)C(=O)N[C@@H](C)C(=O)N[C@@H](Cc1c[nH]cn1)C(=O)N[C@@H](CO)C(=O)N[C@@H](CC(N)=O)C(=O)N[C@@H](CCCN=C(N)N)C(=O)N[C@@H](CCCCN)C(=O)N[C@@H](CC(C)C)C(=O)N[C@@H](CC(C)C)C(=O)N[C@@H](CC(=O)O)C(=O)N[C@H](C(=O)N[C@@H](C)C(N)=O)[C@@H](C)CC)[C@@H](C)O)C(C)C)[C@@H](C)O
0.006	CC[C@H](C)[C@H](NC(=O)[C@H](CC(=O)O)NC(=O)[C@H](CC(C)C)NC(=O)[C@H](CC(C)C)NC(=O)[C@H](CCCCN)NC(=O)[C@H](CCCN=C(N)N)NC(=O)[C@H](CC(N)=O)NC(=O)[C@H](CO)NC(=O)[C@H](Cc1c[nH]cn1)NC(=O)[C@H](C)NC(=O)[C@H](CCC(N)=O)NC(=O)[C@H](CCC(N)=O)NC(=O)[C@H](C)NC(=O)[C@H](CC(C)C)NC(=O)[C@H](CCC(N)=O)NC(=O)[C@H](CC(=O)O)NC(=O)[C@H](C)NC(=O)[C@H](CCCCN)NC(=O)[C@@H](NC(=O)[C@H](CCSC)NC(=O)[C@H](CCC(=O)O)NC(=O)[C@H](CC(C)C)NC(=O)[C@@H](NC(=O)[C@H](CCC(=O)O)NC(=O)[C@H](CCCN=C(N)N)NC(=O)[C@H](CC(C)C)NC(=O)[C@H](CC(C)C)NC(=O)[C@H](Cc1c[nH]cn1)NC(=O)[C@H](Cc1ccccc1)NC(=O)[C@@H](NC(=O)[C@H](C)NC(=O)[C@H](CC(=O)O)NC(=O)[C@H](CC(C)C)NC(=O)[C@H](CO)NC(=O)[C@@H](NC(=O)[C@@H]1CCCN1C(=O)[C@@H]1CCCN1C(=O)[C@H](CCC(=O)O)NC(=O)[C@H](CCC(N)=O)NC(=O)[C@@H](N)CO)[C@@H](C)CC)[C@@H](C)O)C(C)C)[C@@H](C)O)C(=O)N[C@@H](C)C(N)=O
0.004	CC[C@H](C)[C@H](NC(=O)[C@H](CC(=O)O)NC(=O)[C@H](CC(C)C)NC(=O)[C@H](CC(C)C)NC(=O)[C@H](CCCCN)NC(=O)[C@H](CCCN=C(N)N)NC(=O)[C@H](CC(N)=O)NC(=O)[C@H](CO)NC(=O)[C@H](Cc1c[nH]cn1)NC(=O)[C@H](C)NC(=O)[C@H](CCC(N)=O)NC(=O)[C@H](CCC(N)=O)NC(=O)[C@H](C)NC(=O)[C@H](CC(C)C)NC(=O)[C@H](CCC(N)=O)NC(=O)[C@H](CC(=O)O)NC(=O)[C@H](C)NC(=O)[C@H](CCCCN)NC(=O)[C@@H](NC(=O)[C@H](CCSC)NC(=O)[C@H](CCC(=O)O)NC(=O)[C@H](CC(C)C)NC(=O)[C@@H](NC(=O)[C@H](CCC(=O)O)NC(=O)[C@H](CCCN=C(N)N)NC(=O)[C@H](CC(C)C)NC(=O)[C@H](CC(C)C)NC(=O)[C@H](Cc1c[nH]cn1)NC(=O)[C@H](Cc1ccccc1)NC(=O)[C@@H](NC(=O)[C@H](CC(C)C)NC(=O)[C@H](C)NC(=O)[C@H](CC(C)C)NC(=O)[C@H](CO)NC(=O)[C@@H](NC(=O)[C@@H]1CCCN1C(=O)[C@@H]1CCCN1C(=O)[C@H](CCC(=O)O)NC(=O)[C@H](CCC(N)=O)NC(=O)[C@@H](N)CO)[C@@H](C)CC)[C@@H](C)O)C(C)C)[C@@H](C)O)C(=O)N[C@@H](C)C(N)=O
0.004	CC[C@H](C)[C@H](NC(=O)[C@H](CC(=O)O)NC(=O)[C@H](CC(C)C)NC(=O)[C@H](CC(C)C)NC(=O)[C@H](CCCCN)NC(=O)[C@H](CCCN=C(N)N)NC(=O)[C@H](CC(N)=O)NC(=O)[C@H](CO)NC(=O)[C@H](Cc1c[nH]cn1)NC(=O)[C@H](C)NC(=O)[C@H](CCC(N)=O)NC(=O)[C@H](CCC(N)=O)NC(=O)[C@H](C)NC(=O)[C@H](CC(C)C)NC(=O)[C@H](CCC(N)=O)NC(=O)[C@H](CC(=O)O)NC(=O)[C@H](C)NC(=O)[C@H](CCCCN)NC(=O)[C@@H](NC(=O)[C@H](CCSC)NC(=O)[C@H](CCC(=O)O)NC(=O)[C@H](CC(C)C)NC(=O)[C@@H](NC(=O)[C@H](CCC(=O)O)NC(=O)[C@H](CCCN=C(N)N)NC(=O)[C@H](CC(C)C)NC(=O)[C@H](CC(C)C)NC(=O)[C@H](Cc1c[nH]cn1)NC(=O)[C@H](Cc1ccccc1)NC(=O)[C@@H](NC(=O)[C@H](CC(C)C)NC(=O)[C@H](CC(=O)O)NC(=O)[C@H](CC(C)C)NC(=O)[C@H](CO)NC(=O)[C@H](C)NC(=O)[C@@H]1CCCN1C(=O)[C@@H]1CCCN1C(=O)[C@H](CCC(=O)O)NC(=O)[C@H](CCC(N)=O)NC(=O)[C@@H](N)CO)[C@@H](C)O)C(C)C)[C@@H](C)O)C(=O)N[C@@H](C)C(N)=O
0.4	CC[C@H](C)[C@H](NC(=O)[C@H](CC(=O)O)NC(=O)[C@H](CC(C)C)NC(=O)[C@H](CC(C)C)NC(=O)[C@H](CCCCN)NC(=O)[C@H](CCCN=C(N)N)NC(=O)[C@H](CC(N)=O)NC(=O)[C@H](CO)NC(=O)[C@H](Cc1c[nH]cn1)NC(=O)[C@H](C)NC(=O)[C@H](CCC(N)=O)NC(=O)[C@H](CCC(N)=O)NC(=O)[C@H](C)NC(=O)[C@H](CC(C)C)NC(=O)[C@H](CCC(N)=O)NC(=O)[C@H](CC(=O)O)NC(=O)[C@H](C)NC(=O)[C@H](CCCCN)NC(=O)[C@@H](NC(=O)[C@H](CCSC)NC(=O)[C@H](CCC(=O)O)NC(=O)[C@H](CC(C)C)NC(=O)[C@@H](NC(=O)[C@H](CCC(=O)O)NC(=O)[C@H](CCCN=C(N)N)NC(=O)[C@H](CC(C)C)NC(=O)[C@H](CC(C)C)NC(=O)[C@H](Cc1c[nH]cn1)NC(=O)[C@H](Cc1ccccc1)NC(=O)[C@H](C)NC(=O)[C@H](CC(C)C)NC(=O)[C@H](CC(=O)O)NC(=O)[C@H](CC(C)C)NC(=O)[C@H](CO)NC(=O)[C@@H](NC(=O)[C@@H]1CCCN1C(=O)[C@@H]1CCCN1C(=O)[C@H](CCC(=O)O)NC(=O)[C@H](CCC(N)=O)NC(=O)[C@@H](N)CO)[C@@H](C)CC)C(C)C)[C@@H](C)O)C(=O)N[C@@H](C)C(N)=O
1	CC[C@H](C)[C@H](NC(=O)[C@H](CC(=O)O)NC(=O)[C@H](CC(C)C)NC(=O)[C@H](CC(C)C)NC(=O)[C@H](CCCCN)NC(=O)[C@H](CCCNC(=N)N)NC(=O)[C@H](CC(N)=O)NC(=O)[C@H](CO)NC(=O)[C@H](Cc1cnc[nH]1)NC(=O)[C@H](C)NC(=O)[C@H](CCC(N)=O)NC(=O)[C@H](CCC(N)=O)NC(=O)[C@H](C)NC(=O)[C@H](CC(C)C)NC(=O)[C@H](CCC(N)=O)NC(=O)[C@H](CC(=O)O)NC(=O)[C@H](C)NC(=O)[C@H](CCCCN)NC(=O)[C@@H](NC(=O)[C@H](CCSC)NC(=O)[C@H](CCC(=O)O)NC(=O)[C@H](CC(C)C)NC(=O)[C@@H](NC(=O)[C@H](CCC(=O)O)NC(=O)[C@H](CCCNC(=N)N)NC(=O)[C@H](CC(C)C)NC(=O)[C@H](CC(C)C)NC(=O)[C@H](Cc1cnc[nH]1)NC(=O)[C@H](Cc1ccccc1)NC(=O)[C@@H](NC(=O)[C@H](CC(C)C)NC(=O)[C@H](CC(=O)O)NC(=O)[C@H](CC(C)C)NC(=O)[C@H](CO)NC(=O)[C@@H](NC(=O)[C@@H]1CCCN1C(=O)[C@@H]1CCCN1C(=O)[C@H](CCC(=O)O)NC(=O)[C@H](CCC(N)=O)NC(=O)[C@@H](N)CO)[C@@H](C)CC)[C@@H](C)O)C(C)C)[C@@H](C)O)C(=O)N[C@@H](C)C(N)=O
0.006	H-SQEPPISLDLTAHLLREVLEMTKADQLAQQAHSNRKLLDIA-NH2
0.14	H-SQEPPISLDLTFALLREVLEMTKADQLAQQAHSNRKLLDIA-NH2
0.09	H-SQEPPISLDLTFHLAREVLEMTKADQLAQQAHSNRKLLDIA-NH2
0.02	H-SQEPPISLDLTFHLLAEVLEMTKADQLAQQAHSNRKLLDIA-NH2
0.6	H-SQEPPISLDLTFHLLRAVLEMTKADQLAQQAHSNRKLLDIA-NH2
0.5	H-SQEPPISLDLTFHLLREALEMTKADQLAQQAHSNRKLLDIA-NH2
0.09	H-SQEPPISLDLTFHLLREVAEMTKADQLAQQAHSNRKLLDIA-NH2
0.4	H-SQEPPISLDLTFHLLREVLEATKADQLAQQAHSNRKLLDIA-NH2
3.4	H-SQEPPISLDLTFHLLREVLEMAKADQLAQQAHSNRKLLDIA-NH2
0.28	H-SQEPPISLDLTFHLLREVLEMTAADQLAQQAHSNRKLLDIA-NH2
1.7	H-SQEPPISLDLTFHLLREVLEMTKAAQLAQQAHSNRKLLDIA-NH2
1.1	H-SQEPPISLDLTFHLLREVLEMTKADALAQQAHSNRKLLDIA-NH2
0.8	H-SQEPPISLDLTFHLLREVLEMTKADQLAQAAHSNRKLLDIA-NH2
4.5	H-SQEPPISLDLTFHLLREVLEMTKADQLAQQAASNRKLLDIA-NH2
2	H-SQEPPISLDLTFHLLREVLEMTKADQLAQQAHANRKLLDIA-NH2
1.1	H-SQEPPISLDLTFHLLREVLEMTKADQLAQQAHSARKLLDIA-NH2
0.02	H-SQEPPISLDLTFHLLREVLEMTKADQLAQQAHSNAKLLDIA-NH2
0.8	H-SQEPPISLDLTFHLLREVLEMTKADQLAQQAHSNRALLDIA-NH2
0.7	H-SQEPPISLDLTFHLLREVLEMTKADQLAQQAHSNRKALDIA-NH2
1.8	H-SQEPPISLDLTFHLLREVLEMTKADQLAQQAHSNRKLLAIA-NH2
1.7	H-SQEPPISLDLTFHLLREVLEMTKADQLAQQAHSNRKLLDAA-NH2
